Molecular target: T1, PFOR (DVU3025, por) (Nitratidesulfovibrio vulgaris, UniProt Q726T1)
T1 construct: native, untagged; in-gel activity band from crude extract identified by LC-MS/MS; homo-octamer (cited)
Experiment: in-gel activity stain (methyl viologen), band identified by LC-MS/MS
Type: biochemical
Details: 20 mM pyruvate, 0.1 mM CoA, 2 mM methyl viologen, 16 mM dithioerythritol, 50 mM Tris-HCl pH 8.5, anaerobic

T1 sequence (Q726T1 1-1215): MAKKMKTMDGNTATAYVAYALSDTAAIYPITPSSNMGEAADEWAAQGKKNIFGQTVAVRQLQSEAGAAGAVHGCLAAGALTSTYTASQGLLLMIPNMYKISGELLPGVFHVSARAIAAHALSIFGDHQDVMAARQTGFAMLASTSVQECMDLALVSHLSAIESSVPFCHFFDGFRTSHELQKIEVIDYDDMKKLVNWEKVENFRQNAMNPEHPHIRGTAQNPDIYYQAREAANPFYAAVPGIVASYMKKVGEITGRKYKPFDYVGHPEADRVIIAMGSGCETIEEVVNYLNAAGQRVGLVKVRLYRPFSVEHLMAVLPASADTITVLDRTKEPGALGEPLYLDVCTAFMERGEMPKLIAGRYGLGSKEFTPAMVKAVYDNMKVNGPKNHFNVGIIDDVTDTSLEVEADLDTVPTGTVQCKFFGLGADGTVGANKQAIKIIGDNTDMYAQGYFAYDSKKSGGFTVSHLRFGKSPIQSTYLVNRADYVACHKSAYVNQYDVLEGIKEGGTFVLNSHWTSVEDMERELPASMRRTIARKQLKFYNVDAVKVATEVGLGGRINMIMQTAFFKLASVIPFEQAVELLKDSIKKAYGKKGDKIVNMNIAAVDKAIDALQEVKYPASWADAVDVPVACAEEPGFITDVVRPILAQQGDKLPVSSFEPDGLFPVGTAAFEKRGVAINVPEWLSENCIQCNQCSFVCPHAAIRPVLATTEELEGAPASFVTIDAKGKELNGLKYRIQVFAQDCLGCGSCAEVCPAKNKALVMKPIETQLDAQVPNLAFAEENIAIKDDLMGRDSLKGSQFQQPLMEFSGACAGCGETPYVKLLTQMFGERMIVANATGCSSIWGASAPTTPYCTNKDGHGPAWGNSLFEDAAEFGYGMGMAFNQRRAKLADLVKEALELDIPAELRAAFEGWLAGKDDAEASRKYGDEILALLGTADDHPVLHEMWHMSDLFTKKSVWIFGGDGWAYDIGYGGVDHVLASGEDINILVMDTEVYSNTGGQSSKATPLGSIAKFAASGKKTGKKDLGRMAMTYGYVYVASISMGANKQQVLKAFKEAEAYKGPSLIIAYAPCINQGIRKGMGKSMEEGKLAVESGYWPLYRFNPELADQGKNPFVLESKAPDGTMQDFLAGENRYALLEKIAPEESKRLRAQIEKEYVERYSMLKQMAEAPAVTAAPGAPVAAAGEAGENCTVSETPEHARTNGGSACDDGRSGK

| Compound | in-gel activity stain (methyl viologen), band identified by LC-MS/MS |
| --- | --- |
| CC(C)(COP(=O)(O)OP(=O)(O)OC[C@H]1O[C@@H](n2cnc3c(N)ncnc32)[C@H](O)[C@@H]1OP(=O)(O)O)[C@@H](O)C(=O)NCCC(=O)NCCS [CoA] | Two bands were stained with methyl viologen in the presence of pyruvate and CoA |
| CC(=O)C(=O)O [pyruvate] | Two bands were stained with methyl viologen in the presence of pyruvate and CoA |

Reference: publication PMC4481167, “The primary pathway for lactate oxidation in Desulfovibrio vulgaris” (Frontiers in Microbiology, 2015)
